ChEMBL document CHEMBL1201862, “PubChem BioAssay data set” (2004)
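96-well plates; 48 h exposure; 5 concentrations. Endpoints by linear interpolation between flanking doses. Not reached: highest tested concentration assigned. Abbreviation: GI50, concentration required for 50% inhibition of growth.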 The source made the active and inactive calls. No stated cut-off is given here; in the data, active = GI50 up to about 1.1 µM and inactive = higher.

Columns and labels:
Assay in all cases: NCI tumour cell line growth inhibition, 48 h
SK-MEL-2 = system: SK-MEL-2
NCI-H460 = system: NCI-H460
MDA-MB-231 = system: MDA-MB-231
MDA-MB-435 = system: MDA-MB-435
SF-539 = system: SF-539
OVCAR-8 = system: OVCAR-8
HL-60 = system: HL-60
SK-OV-3 = system: SK-OV-3
OVCAR-5 = system: OVCAR-5
SW-620 = system: SW-620
A498 = system: A498
SK-MEL-5 = system: SK-MEL-5
HCT-116 = system: HCT-116
COLO 205 = system: COLO 205
SK-MEL-28 = system: SK-MEL-28
MCF7 = system: MCF7
UO-31 = system: UO-31
MOLT-4 = system: MOLT-4
HT-29 = system: HT-29
BT-549 = system: BT-549

SMILES | GI50 (SK-MEL-2) | GI50 (NCI-H460) | GI50 (MDA-MB-231) | GI50 (MDA-MB-435) | GI50 (SF-539) | GI50 (OVCAR-8) | GI50 (HL-60) | GI50 (SK-OV-3) | GI50 (OVCAR-5) | GI50 (SW-620) | GI50 (A498) | GI50 (SK-MEL-5) | GI50 (HCT-116) | GI50 (COLO 205) | GI50 (SK-MEL-28) | GI50 (MCF7) | GI50 (UO-31) | GI50 (MOLT-4) | GI50 (HT-29) | GI50 (BT-549)
O=C1OC(c2ccccc2)N(C(=O)c2ccccc2)C1Cc1ccc(OCc2ccccc2)cc1 (stereo not drawn) | 31.1 µM (inactive) | 60 µM (inactive) | 2.6 µM (inactive) | > 100 µM (inactive) | > 100 µM (inactive) | 94.8 µM (inactive) | 9.89 µM (inactive) | > 100 µM (inactive) | > 100 µM (inactive) | > 100 µM (inactive) | 4.67 µM (inactive) | 43.8 µM (inactive) | > 100 µM (inactive) | > 100 µM (inactive) | > 100 µM (inactive) | 5.48 µM (inactive) | 21.1 µM (inactive) | – | – | –
CC1=NNC(=O)C1C(CC(=O)c1c[nH]c2ccccc12)C(=O)O (stereo not drawn) | > 100 µM (inactive) | > 100 µM (inactive) | > 100 µM (inactive) | 68.5 µM (inactive) | > 100 µM (inactive) | > 100 µM (inactive) | 74.5 µM (inactive) | > 100 µM (inactive) | > 100 µM (inactive) | > 100 µM (inactive) | > 100 µM (inactive) | > 100 µM (inactive) | > 100 µM (inactive) | 64.7 µM (inactive) | > 100 µM (inactive) | – | 64.3 µM (inactive) | 49 µM (inactive) | > 100 µM (inactive) | > 100 µM (inactive)
N#Cc1nnc2c3c(-c4ccc(Cl)cc4)c(C#N)c(O)nc3nn2c1N | 9.84 µM (inactive) | 9.14 µM (inactive) | 13.4 µM (inactive) | 8.69 µM (inactive) | 2.88 µM (inactive) | 4.92 µM (inactive) | – | 4.61 µM (inactive) | 24.8 µM (inactive) | 5.46 µM (inactive) | 2.77 µM (inactive) | 6.71 µM (inactive) | 3.51 µM (inactive) | 11.7 µM (inactive) | 11.9 µM (inactive) | 2.06 µM (inactive) | 6.25 µM (inactive) | 2.62 µM (inactive) | 5 µM (inactive) | –
CCOC1NC(=O)c2ccccc21 (stereo not drawn) | – | > 100 µM (inactive) | > 100 µM (inactive) | > 100 µM (inactive) | > 100 µM (inactive) | > 100 µM (inactive) | > 100 µM (inactive) | > 100 µM (inactive) | > 100 µM (inactive) | > 100 µM (inactive) | – | > 100 µM (inactive) | > 100 µM (inactive) | > 100 µM (inactive) | > 100 µM (inactive) | > 100 µM (inactive) | > 100 µM (inactive) | > 100 µM (inactive) | > 100 µM (inactive) | > 100 µM (inactive)
O=C(c1ccccc1)c1ccc2[nH]c(-c3c(Cl)c(Cl)c(Cl)c(Cl)c3C(=O)N/N=C/c3ccccc3)nc2c1 | 21.6 µM (inactive) | – | 19.2 µM (inactive) | 9.25 µM (inactive) | 25.1 µM (inactive) | 32.2 µM (inactive) | 18.6 µM (inactive) | 35.7 µM (inactive) | 36.9 µM (inactive) | 37.2 µM (inactive) | – | 14.5 µM (inactive) | 32.1 µM (inactive) | 17.5 µM (inactive) | 24 µM (inactive) | 13.6 µM (inactive) | 27.5 µM (inactive) | 11.2 µM (inactive) | 30.8 µM (inactive) | 28.5 µM (inactive)
CO/C(=N\N=C\c1ccc(C(F)(F)F)cc1)c1ccncc1 | > 10 µM (inactive) | > 10 µM (inactive) | > 10 µM (inactive) | > 10 µM (inactive) | – | > 10 µM (inactive) | > 10 µM (inactive) | – | > 10 µM (inactive) | > 10 µM (inactive) | – | – | > 10 µM (inactive) | > 10 µM (inactive) | – | > 10 µM (inactive) | > 10 µM (inactive) | > 10 µM (inactive) | > 10 µM (inactive) | > 10 µM (inactive)
CCn1c(-c2cc3ccccc3cc2OC(C)=O)n[nH]c1=S | 18.2 µM (inactive) | 24.7 µM (inactive) | 26.1 µM (inactive) | 23.3 µM (inactive) | 35.6 µM (inactive) | 38.4 µM (inactive) | 0.0805 µM (active) | 50.7 µM (inactive) | 44.6 µM (inactive) | 35 µM (inactive) | 25.8 µM (inactive) | 14.9 µM (inactive) | 18.5 µM (inactive) | – | 32.4 µM (inactive) | 30.8 µM (inactive) | 67.8 µM (inactive) | 18.7 µM (inactive) | 30.4 µM (inactive) | –
CSc1ccccc1NC1=NCCO1 | > 100 µM (inactive) | > 100 µM (inactive) | > 100 µM (inactive) | > 100 µM (inactive) | > 100 µM (inactive) | > 100 µM (inactive) | > 100 µM (inactive) | – | > 100 µM (inactive) | > 100 µM (inactive) | > 100 µM (inactive) | > 100 µM (inactive) | > 100 µM (inactive) | > 100 µM (inactive) | > 100 µM (inactive) | > 100 µM (inactive) | > 100 µM (inactive) | > 100 µM (inactive) | > 100 µM (inactive) | –
CCOP(=O)(CC(=O)C1CC1)OCC | > 100 µM (inactive) | > 100 µM (inactive) | > 100 µM (inactive) | – | > 100 µM (inactive) | > 100 µM (inactive) | > 100 µM (inactive) | > 100 µM (inactive) | > 100 µM (inactive) | > 100 µM (inactive) | – | > 100 µM (inactive) | > 100 µM (inactive) | > 100 µM (inactive) | > 100 µM (inactive) | > 100 µM (inactive) | > 100 µM (inactive) | > 100 µM (inactive) | > 100 µM (inactive) | > 100 µM (inactive)
CCCCCC[C@H]1CC(=O)C2CCCC[C@@]23CC[C@H](CCl)N13.CCCCCC[C@H]1CC(=O)C2CCCC[C@@]23C[C@H](Cl)CN13 (stereo partly drawn) | > 100 µM (inactive) | 98.2 µM (inactive) | 84.5 µM (inactive) | 57.8 µM (inactive) | 69.5 µM (inactive) | 25.4 µM (inactive) | 21.8 µM (inactive) | > 100 µM (inactive) | > 100 µM (inactive) | – | > 100 µM (inactive) | 17.2 µM (inactive) | 51.9 µM (inactive) | 10 µM (inactive) | 38.1 µM (inactive) | 40.1 µM (inactive) | 24.3 µM (inactive) | 10 µM (inactive) | 61.9 µM (inactive) | –
CC(C)=NN/C(=N\c1ccc(Cl)cc1)NS(=O)(=O)c1cc(Cl)c(Oc2ccc([N+](=O)[O-])cc2Cl)c(Cl)c1 | > 100 µM (inactive) | > 100 µM (inactive) | 60.1 µM (inactive) | 79.3 µM (inactive) | – | > 100 µM (inactive) | > 100 µM (inactive) | – | > 100 µM (inactive) | > 100 µM (inactive) | – | > 100 µM (inactive) | > 100 µM (inactive) | > 100 µM (inactive) | > 100 µM (inactive) | > 100 µM (inactive) | 56.8 µM (inactive) | 25.4 µM (inactive) | > 100 µM (inactive) | > 100 µM (inactive)
COC(=O)CCC1=CCC2(SC)C(=O)Nc3cccc1c32 (stereo not drawn) | > 100 µM (inactive) | > 100 µM (inactive) | > 100 µM (inactive) | > 100 µM (inactive) | > 100 µM (inactive) | > 100 µM (inactive) | > 100 µM (inactive) | > 100 µM (inactive) | > 100 µM (inactive) | > 100 µM (inactive) | – | > 100 µM (inactive) | > 100 µM (inactive) | > 100 µM (inactive) | > 100 µM (inactive) | > 100 µM (inactive) | > 100 µM (inactive) | > 100 µM (inactive) | > 100 µM (inactive) | > 100 µM (inactive)
C#CC(O)/C=C/C(O)CCCC(O)CC#CC(O)C#CCCCCC(O)/C=C/CCCCCC(=O)CCCCCCCCCCCCCC(O)C(O)C#CC(=O)O (stereo not drawn) | > 25 µM (inactive) | > 25 µM (inactive) | > 25 µM (inactive) | > 25 µM (inactive) | – | > 25 µM (inactive) | > 25 µM (inactive) | > 25 µM (inactive) | > 25 µM (inactive) | – | > 25 µM (inactive) | > 25 µM (inactive) | > 25 µM (inactive) | > 25 µM (inactive) | > 25 µM (inactive) | > 25 µM (inactive) | 11.5 µM (inactive) | 12.8 µM (inactive) | > 25 µM (inactive) | –
CC(NC(=O)C(N)CC(=O)O)C(=O)OC12CC3CC(CC(C3)C1)C2 (stereo not drawn) | > 100 µM (inactive) | > 100 µM (inactive) | > 100 µM (inactive) | > 100 µM (inactive) | – | > 100 µM (inactive) | – | > 100 µM (inactive) | > 100 µM (inactive) | > 100 µM (inactive) | – | > 100 µM (inactive) | > 100 µM (inactive) | > 100 µM (inactive) | > 100 µM (inactive) | > 100 µM (inactive) | > 100 µM (inactive) | > 100 µM (inactive) | > 100 µM (inactive) | –
NC(N)=NCc1ccc2c(c1)OCO2 | > 100 µM (inactive) | > 100 µM (inactive) | 95.3 µM (inactive) | 73.1 µM (inactive) | 42.7 µM (inactive) | – | 60.3 µM (inactive) | > 100 µM (inactive) | > 100 µM (inactive) | > 100 µM (inactive) | 28.2 µM (inactive) | 24 µM (inactive) | 78.3 µM (inactive) | – | 67.3 µM (inactive) | – | > 100 µM (inactive) | > 100 µM (inactive) | 72.9 µM (inactive) | –
CCOc1ccc2c(c1)c(CC(=O)O)cn2C | > 100 µM (inactive) | > 100 µM (inactive) | > 100 µM (inactive) | > 100 µM (inactive) | > 100 µM (inactive) | > 100 µM (inactive) | > 100 µM (inactive) | > 100 µM (inactive) | – | – | – | – | > 100 µM (inactive) | > 100 µM (inactive) | > 100 µM (inactive) | > 100 µM (inactive) | > 100 µM (inactive) | > 100 µM (inactive) | > 100 µM (inactive) | > 100 µM (inactive)
